Reference: US20060142379A1, “Use of AP-1 activators to treat glaucoma and ocular hypertension” (priority 1999, published 2006)

Assays:
[1] = system: perfused human ocular anterior segment; experiment: human ocular perfusion organ culture model, aqueous outflow rate; details: for Flow Rate (% of Time 0) (Mean ± SEM, n = 6): t-BHQ 10 μM
Procedure: The study was performed as follows: Human donor eyes less than 24 hours post mortem were used. The globe was sectioned equatorially followed by the removal of vitreous, lens, zonules, iris, and most of the ciliary body. The anterior segment was then mounted on a perfusion dish, perfused with cell culture medium at a constant hydrostatic pressure of 10 mm Hg (Johnson et al., Human trabecular meshwork organ culture: A new method, Invest Ophthalmol Vis Sci., volume 28, pages 945-953 (1987); Erickson-Lamy et al., Outflow facility studies in the perfused human ocular anterior segment, Exp. Eye Res., volume 52, pages 723-731 (1991); and Clark et al., Dexamethasone-induced ocular hypertension in perfusion cultured human eyes, Invest. Ophthalmol. Vis. Sci., volume 36, pages 478-489 (1995)). The flow rate of the perfusate was measured by weighing the reservoir at predetermined periods. After 2 to 4 days of equilibrium period, one eye of each of the donor pair was perfused with the test compound, t-BHQ (10 μM), while the other was perfused with vehicle (control).

AP-1 = details: nuclear extracts, 32P-labelled AP-1 oligonucleotide probe; cited from earlier work

CC(C)(C)c1cc(O)ccc1O [t-BHQ, tert-butylhydroquinone]
basal flow rate at time 0 ([1]; drug-treated eyes, time 0 (basal)): (1) The basal flow rate at time 0 for vehicle-treated eyes was 3.55 ± 1.00 μL/min, and that for drug-treated eyes was 4.09 ± 0.63 μL/min. | Flow Rate (% of Time 0) (Mean ± SEM, n = 6) ([1]; 0 hours (baseline)): 100.0 % of Time 0 | Flow Rate (% of Time 0) (Mean ± SEM, n = 6) ([1]; 4 hours after treatment): 105.8 ± 5.4 % of Time 0 | Flow Rate (% of Time 0) (Mean ± SEM, n = 6) ([1]; 24 hours after treatment): 102.9 ± 3.9 % of Time 0 | Flow Rate (% of Time 0) (Mean ± SEM, n = 6) ([1]; 48 hours after treatment): 105.2 ± 10.1 % of Time 0 | Flow Rate (% of Time 0) (Mean ± SEM, n = 6) ([1]; 72 hours after treatment): 111.8 ± 11.8 % of Time 0 | Flow Rate (% of Time 0) (Mean ± SEM, n = 6) ([1]; 96 hours after treatment): 120.9 ± 16.4 % of Time 0 | Flow Rate (% of Time 0) (Mean ± SEM, n = 6) ([1]; −4 hours (before treatment)): 97.0 ± 4.0 % of Time 0 | AP-1 DNA binding activity (AP-1 Activator) (AP-1): demonstrated to be AP-1 Activators
